Experimental data: ChEMBL document CHEMBL1201862, “PubChem BioAssay data set” (2004)
Activity calls are given as the source filed them.

Experiments:
[1] = molecular target: T1, Leucine aminopeptidase (Plasmodium falciparum 3D7, UniProt Q8IL11); assay: P. falciparum M17LAP inhibitors, primary screen, biochemical, fluorogenic H-Leu-NHMec substrate, 1536-well (AID 1619); format: functional
T1 sequence (Q8IL11 whole entry): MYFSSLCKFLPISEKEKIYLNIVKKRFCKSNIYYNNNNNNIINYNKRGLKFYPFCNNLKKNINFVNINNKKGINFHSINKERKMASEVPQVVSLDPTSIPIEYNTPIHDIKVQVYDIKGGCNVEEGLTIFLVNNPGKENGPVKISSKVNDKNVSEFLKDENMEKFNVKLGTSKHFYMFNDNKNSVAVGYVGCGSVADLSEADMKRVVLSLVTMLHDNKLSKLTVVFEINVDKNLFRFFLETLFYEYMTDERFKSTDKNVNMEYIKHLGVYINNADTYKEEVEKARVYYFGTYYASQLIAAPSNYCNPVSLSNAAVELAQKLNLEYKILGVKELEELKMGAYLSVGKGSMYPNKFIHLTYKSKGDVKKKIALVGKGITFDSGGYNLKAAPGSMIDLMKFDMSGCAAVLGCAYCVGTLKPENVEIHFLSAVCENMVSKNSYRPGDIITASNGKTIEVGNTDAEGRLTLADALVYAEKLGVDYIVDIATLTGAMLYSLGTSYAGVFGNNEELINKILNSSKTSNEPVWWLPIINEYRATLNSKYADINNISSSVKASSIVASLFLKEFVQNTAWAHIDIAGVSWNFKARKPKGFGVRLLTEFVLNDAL

[2] = molecular target: T2, Aspartyl aminopeptidase (Plasmodium falciparum 3D7, UniProt Q8I2J3); assay: Counterscreen for inhibitors of M1 and M17 aminopeptidases: QFRET-based biochemical high throughput dose response assay for inhibitors of the Plasmodium falciparum M18 Aspartyl Aminopeptidase (PFM18AAP). [Related PubChem assays: 1619 (Screening assay (M17LAP inhibitors).), 1445 (Screening assay (M1AAP inhibitors).)]
T2 sequence (Q8I2J3 whole entry): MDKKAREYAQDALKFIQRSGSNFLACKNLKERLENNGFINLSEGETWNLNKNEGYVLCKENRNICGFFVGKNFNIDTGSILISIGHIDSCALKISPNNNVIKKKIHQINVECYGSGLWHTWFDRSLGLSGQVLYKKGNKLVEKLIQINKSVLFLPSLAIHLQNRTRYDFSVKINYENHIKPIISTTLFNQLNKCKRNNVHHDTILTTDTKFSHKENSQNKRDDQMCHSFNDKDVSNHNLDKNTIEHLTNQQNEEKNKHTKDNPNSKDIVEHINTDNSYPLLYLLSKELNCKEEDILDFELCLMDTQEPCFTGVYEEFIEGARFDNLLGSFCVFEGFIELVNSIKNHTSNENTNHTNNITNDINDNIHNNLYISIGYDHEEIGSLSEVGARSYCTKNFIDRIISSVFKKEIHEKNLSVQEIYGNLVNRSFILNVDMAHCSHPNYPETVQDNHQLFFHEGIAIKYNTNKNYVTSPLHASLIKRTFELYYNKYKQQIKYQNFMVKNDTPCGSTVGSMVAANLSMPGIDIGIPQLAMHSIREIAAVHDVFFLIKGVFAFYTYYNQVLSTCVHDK

[3] = molecular target: Procathepsin L (Homo sapiens, UniProt P07711); assay: cathepsin L inhibitors, dose response, counter-screen for M1/M17 aminopeptidase inhibitor project, biochemical, QFRET, 1536-well (AID 2214)
[4] = molecular target: T3, Protein RecA (Mycobacterium tuberculosis, UniProt P9WHJ3); assay: Fluorescence Cell-Free Homogeneous Dose Retest to Identify Inhibitors of RecA-Intein Splicing Activity. [Related pubchem assays (depositor defined):AID2097, AID2223, AID489010, AID492950]; format: functional
T3 sequence (P9WHJ3 whole entry): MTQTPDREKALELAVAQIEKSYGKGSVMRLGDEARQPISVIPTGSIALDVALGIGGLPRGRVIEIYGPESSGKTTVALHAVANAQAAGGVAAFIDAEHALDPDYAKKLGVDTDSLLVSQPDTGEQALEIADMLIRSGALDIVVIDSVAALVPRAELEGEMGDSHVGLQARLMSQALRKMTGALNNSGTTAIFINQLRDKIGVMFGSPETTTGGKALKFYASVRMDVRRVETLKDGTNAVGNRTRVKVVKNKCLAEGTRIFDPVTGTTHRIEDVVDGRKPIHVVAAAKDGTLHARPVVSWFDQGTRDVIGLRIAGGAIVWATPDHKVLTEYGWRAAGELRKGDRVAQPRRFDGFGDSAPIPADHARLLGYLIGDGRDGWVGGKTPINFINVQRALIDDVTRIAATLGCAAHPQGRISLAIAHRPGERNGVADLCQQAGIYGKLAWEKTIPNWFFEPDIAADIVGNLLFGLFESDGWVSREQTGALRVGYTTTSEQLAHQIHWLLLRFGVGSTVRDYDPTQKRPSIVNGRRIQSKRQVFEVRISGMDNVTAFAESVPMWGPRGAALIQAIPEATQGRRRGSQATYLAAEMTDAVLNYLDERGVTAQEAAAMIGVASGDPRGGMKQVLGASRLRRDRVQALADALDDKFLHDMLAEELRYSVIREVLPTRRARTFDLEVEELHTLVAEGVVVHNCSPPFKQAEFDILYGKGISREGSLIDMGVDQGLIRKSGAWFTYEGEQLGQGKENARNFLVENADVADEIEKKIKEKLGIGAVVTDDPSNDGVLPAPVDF

[5] = molecular target: T4, Replicative DNA helicase DnaB (Mycobacterium tuberculosis, UniProt P9WMR3); assay: DnaB intein splicing inhibitors, dose response, biochemical, cell-free fluorescence (AID 449749); format: functional
T4 sequence (P9WMR3 whole entry): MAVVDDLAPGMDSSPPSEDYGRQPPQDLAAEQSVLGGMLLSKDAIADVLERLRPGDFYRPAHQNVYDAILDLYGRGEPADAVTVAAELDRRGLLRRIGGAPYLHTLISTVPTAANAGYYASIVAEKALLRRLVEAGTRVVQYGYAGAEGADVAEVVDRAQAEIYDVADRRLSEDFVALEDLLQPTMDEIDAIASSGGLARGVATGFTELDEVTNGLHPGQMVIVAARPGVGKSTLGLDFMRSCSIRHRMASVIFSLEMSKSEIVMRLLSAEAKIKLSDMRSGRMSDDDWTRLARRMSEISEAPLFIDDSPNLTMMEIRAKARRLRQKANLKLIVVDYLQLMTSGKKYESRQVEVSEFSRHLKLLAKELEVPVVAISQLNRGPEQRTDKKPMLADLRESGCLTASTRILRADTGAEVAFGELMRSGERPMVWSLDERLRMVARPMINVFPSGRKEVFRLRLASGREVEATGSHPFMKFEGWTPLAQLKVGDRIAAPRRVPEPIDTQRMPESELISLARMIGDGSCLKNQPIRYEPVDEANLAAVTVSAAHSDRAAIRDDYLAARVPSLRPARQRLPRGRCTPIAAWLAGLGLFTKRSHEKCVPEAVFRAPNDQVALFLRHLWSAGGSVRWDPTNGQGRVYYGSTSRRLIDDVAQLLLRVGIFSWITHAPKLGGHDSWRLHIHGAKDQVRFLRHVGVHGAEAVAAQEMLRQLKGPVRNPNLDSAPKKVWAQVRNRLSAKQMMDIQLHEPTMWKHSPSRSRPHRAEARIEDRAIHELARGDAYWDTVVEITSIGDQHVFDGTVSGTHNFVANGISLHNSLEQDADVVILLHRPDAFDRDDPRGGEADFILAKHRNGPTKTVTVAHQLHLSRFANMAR

[6] = molecular target: T5, Heat shock factor protein 1 (Mus musculus, UniProt P38532); assay: HSF1 potentiators in luciferase reporter cells, confirmation, cell-based, NIH3T3, luminescence, dose retest (AID 435004); format: functional;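 also: stress induced by proteasome inhibitor MG132 added 30 min after compound; luciferase reporter driven by HSF1 response element in NIH3T3 cells; actives raise luminescence as potentiators of the MG132 stress response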
T5 sequence (P38532 whole entry): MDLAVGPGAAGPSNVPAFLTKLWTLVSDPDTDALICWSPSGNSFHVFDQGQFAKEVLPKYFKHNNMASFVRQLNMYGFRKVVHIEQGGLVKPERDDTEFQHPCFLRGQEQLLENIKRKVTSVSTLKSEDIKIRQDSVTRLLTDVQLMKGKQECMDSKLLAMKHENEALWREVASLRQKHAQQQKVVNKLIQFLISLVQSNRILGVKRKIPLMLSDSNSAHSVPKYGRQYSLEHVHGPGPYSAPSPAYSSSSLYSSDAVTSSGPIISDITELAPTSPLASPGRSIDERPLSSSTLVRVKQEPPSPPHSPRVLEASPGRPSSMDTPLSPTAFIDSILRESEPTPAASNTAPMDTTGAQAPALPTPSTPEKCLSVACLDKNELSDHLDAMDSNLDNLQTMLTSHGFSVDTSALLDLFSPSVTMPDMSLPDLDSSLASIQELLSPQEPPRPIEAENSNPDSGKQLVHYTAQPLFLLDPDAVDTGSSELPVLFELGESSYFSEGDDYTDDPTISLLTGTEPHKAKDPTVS

[7] = test system: Vero; assay: cells; format: functional, cell-based; conditions: Chlorocebus sabaeus
[8] = test system: Vero; assay: cells; format: functional; conditions: Chlorocebus sabaeus
[9] = test system: Vero; assay: host cell cytotoxicity of antiviral hits, dose response, cytotoxicity control for West Nile virus antiviral project, secondary assay (AID 1650); format: functional; conditions: Chlorocebus sabaeus
[10] = molecular target: Cytochrome P450 2C9 (Homo sapiens, UniProt P11712); conditions: Potency
[11] = molecular target: Cytochrome P450 2C19 (Homo sapiens, UniProt P33261); assay: qHTS Assay for Inhibitors and Substrates of Cytochrome P450 2C19. [Related pubchem assays: 410 ]; format: ADME; conditions: read-out: Potency
[12] = molecular target: Cytochrome P450 2D6 (Homo sapiens, UniProt P10635); assay: qHTS Assay for Inhibitors and Substrates of Cytochrome P450 2D6. [Related pubchem assays: 410 ]; format: ADME; conditions: read-out: Potency
[13] = Luminescence Cell-Based Dose Confirmation HTS to Identify Inhibitors of Polyadenylation.; format: functional
[14] = P. falciparum 3D7-ScDHODH growth inhibitors, dose response, SYBR Green, dry powder samples (AID 1159570); format: functional, cell-based;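 also: parasite growth measured after 72 hours of compound exposure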
[15] = P. falciparum ATP4 D1247Y mutant growth inhibitors, dose response, NITD609-resistant line, SYBR Green, dry powder (AID 1159571); format: functional, cell-based;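 also: parasites synchronized at ring stage by sorbitol before testing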
[16] = Plasmodium falciparum Dd2 Sybr green parasite growth Measured in Cell-Based and Microorganism Combination System Using Plate Reader - 2153-01_Inhibitor_Dose_DryPowder_Activity_Set3.; format: functional
[17] = HepG2 cell cytotoxicity, dose response, cytotoxicity control, plate reader, dry powder samples (AID 1159569); format: functional, cell-based;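 also: inhibitor potency with signal falling toward the positive control level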
[18] = P. falciparum Dd2 growth inhibitors, dose response, SYBR Green, cherry-picked samples (AID 1159567); format: functional, cell-based
[19] = P. falciparum Dd2 growth inhibitors, dose response, SYBR Green, dry powder samples (AID 1159566); format: functional, cell-based;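 also: potency for growth inhibition with lower SYBR green DNA signal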

Sequence of Cytochrome P450 2D6 (P10635 whole entry): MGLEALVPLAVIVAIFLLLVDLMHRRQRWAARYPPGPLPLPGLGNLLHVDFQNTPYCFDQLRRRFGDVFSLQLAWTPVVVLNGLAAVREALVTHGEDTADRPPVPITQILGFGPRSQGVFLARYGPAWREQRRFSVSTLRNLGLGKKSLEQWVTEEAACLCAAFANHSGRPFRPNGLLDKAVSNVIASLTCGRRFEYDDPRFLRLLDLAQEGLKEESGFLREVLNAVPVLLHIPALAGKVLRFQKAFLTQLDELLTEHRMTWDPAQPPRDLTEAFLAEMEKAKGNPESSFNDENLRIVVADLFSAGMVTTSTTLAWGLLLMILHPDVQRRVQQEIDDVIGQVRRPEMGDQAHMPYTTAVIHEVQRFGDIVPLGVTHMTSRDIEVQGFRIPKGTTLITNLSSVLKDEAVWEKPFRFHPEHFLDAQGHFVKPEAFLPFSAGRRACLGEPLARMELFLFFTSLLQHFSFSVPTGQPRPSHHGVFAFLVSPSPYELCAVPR
Sequence of Procathepsin L (P07711 whole entry): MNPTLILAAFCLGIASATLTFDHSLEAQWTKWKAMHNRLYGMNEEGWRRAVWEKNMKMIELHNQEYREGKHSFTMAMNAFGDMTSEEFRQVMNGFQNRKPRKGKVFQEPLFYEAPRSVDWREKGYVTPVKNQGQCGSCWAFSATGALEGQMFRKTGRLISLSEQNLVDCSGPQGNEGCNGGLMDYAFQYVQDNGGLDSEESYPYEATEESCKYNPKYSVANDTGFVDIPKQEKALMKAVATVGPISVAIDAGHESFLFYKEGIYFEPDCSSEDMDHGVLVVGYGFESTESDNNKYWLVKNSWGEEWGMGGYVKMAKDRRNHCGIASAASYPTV
Sequence of Cytochrome P450 2C19 (P33261 whole entry): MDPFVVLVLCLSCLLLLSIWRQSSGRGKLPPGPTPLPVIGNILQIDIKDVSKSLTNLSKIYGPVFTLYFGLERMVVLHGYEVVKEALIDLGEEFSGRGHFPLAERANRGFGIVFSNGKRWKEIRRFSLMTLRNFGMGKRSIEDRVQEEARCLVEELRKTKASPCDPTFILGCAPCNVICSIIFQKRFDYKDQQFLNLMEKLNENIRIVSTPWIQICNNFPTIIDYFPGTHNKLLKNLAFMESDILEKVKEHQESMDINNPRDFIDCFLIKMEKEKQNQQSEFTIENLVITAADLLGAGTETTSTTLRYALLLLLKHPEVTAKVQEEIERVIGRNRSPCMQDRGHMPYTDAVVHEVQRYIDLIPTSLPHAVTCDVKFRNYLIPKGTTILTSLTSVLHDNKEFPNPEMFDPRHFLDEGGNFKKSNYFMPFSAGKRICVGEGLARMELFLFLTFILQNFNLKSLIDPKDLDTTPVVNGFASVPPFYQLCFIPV
Sequence of Cytochrome P450 2C9 (P11712 whole entry): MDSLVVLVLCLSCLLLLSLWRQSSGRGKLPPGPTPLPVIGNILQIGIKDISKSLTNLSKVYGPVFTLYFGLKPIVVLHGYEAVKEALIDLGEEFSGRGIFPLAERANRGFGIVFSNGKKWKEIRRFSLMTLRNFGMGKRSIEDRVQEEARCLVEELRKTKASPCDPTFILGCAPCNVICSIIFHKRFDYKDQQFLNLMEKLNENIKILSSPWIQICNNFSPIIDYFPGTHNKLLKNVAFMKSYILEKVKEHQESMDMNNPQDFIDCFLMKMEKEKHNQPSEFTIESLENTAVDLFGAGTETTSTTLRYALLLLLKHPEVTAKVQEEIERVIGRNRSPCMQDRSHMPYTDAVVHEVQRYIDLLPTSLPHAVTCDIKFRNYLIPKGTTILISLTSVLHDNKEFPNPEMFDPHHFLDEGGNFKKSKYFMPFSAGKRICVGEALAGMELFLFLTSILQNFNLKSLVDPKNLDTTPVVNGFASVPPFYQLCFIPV

With `CCc1cc2ccc(C)cc2nc1SCC(=O)Nc1cc(OC)c(OC)cc1C(=O)O` as the molecule, how does the IC50 [1] read?
The IC50 was < 1 µM (active).

And the IC50 [2]?
Its IC50 is > 73.5 µM (not active).

And the IC50 [3]?
The IC50 was > 59.6 µM (not active).

For `Cc1ccccc1NC(=O)C(=Cc1ccc(C(=O)O)cc1)C(=O)Nc1ccccc1C`, which EC50 [4] is on record?
Its EC50 is 5.08 µM (active).

And the AC50 [5]?
Its AC50 is 3.66 µM (active).

And the EC50 [6]?
Its EC50 is 29 µM (active).

What about the IC50 [7] of the same molecule?
Its IC50 is > 25 µM (active).

What about the CC50 [8] of the same molecule?
Its CC50 is 14.7 µM (active).

What about the CC50 [9] of the same molecule?
Its CC50 is 7.39 µM (active).

With `COC(=O)NC(c1ccco1)C(C(C)=O)C(=O)OC` (centres undefined) as the molecule, how does the AC50 [10] read?
The AC50 was 1 µM (inconclusive).

What about the AC50 [11] of the same molecule?
Its AC50 is 6.31 µM (inconclusive).

And the AC50 [12]?
The AC50 was 3.16 µM (inconclusive).

Which EC50 [13] does the source give for `CCCCCCCCCCCC(=O)N/N=C/c1ccco1` here?
Its EC50 is > 120 µM (not active).

Which AC50 [14] does the source give for `CCCNC(=O)N1[C@H](C#N)[C@H](c2ccc(-c3cccnc3)cc2)[C@H]1CO` here?
Its AC50 is > 39 µM (inactive).

And the AC50 [15]?
The AC50 was 1.16 µM (active).

And the AC50 [16]?
The AC50 was 0.927 µM (active).

What about the AC50 [17] of the same molecule?
Its AC50 is > 100 µM (inactive).

And the AC50 [18]?
Its AC50 is 1.49 µM (active).

And the AC50 [19]?
The AC50 was 0.822 µM (active).
